Test results taken from article PMC7076857 (Toxins, 2020).
≈ marks a conversion by molar mass, not a printed value. Like-named read-outs stand apart in the source and are kept apart here. Numbered stars: 1 amine (or outer) side, 2 acyl side, 3 side chain; on linkers, the order of the positions; unused ones are H or OH. Bridge positions count the residues as written; N and C are the ends. Square brackets hold non-standard residues; d marks the D form. Peptide text beside a SMILES is read from it. Adda = CO[C@@H](Cc1ccccc1)[C@@H](C)/C=C(C)/C=C/[C@H](N[*:1])[C@H](C)C(=O)[*:2]; dAsp(3S-Me) = C[C@H](C(=O)[*:3])[C@@H](N[*:1])C(=O)[*:2]; d(γGlu) = O=C(O)[C@@H](CCC(=O)[*:2])N[*:1]; NMeDha = C=C(NC)C(=O)O

Experiments:
[1] = target: Protein phosphatase 2A (PP2A) (Homo sapiens, UniProt P67775); assay type: biochemical; conditions: for IC50: read-out: IC50 (PP2A inhibition)
PP2A = conditions: cited from earlier work
Text: The positive and negative LC–HRMS spectra of 1 were consistent with a molecular formula of C55H77O13N7 which, together with the presence of a prominent [M + Na]^+ adduct ion, a weak neutral loss of m/z 134.0727, and the late retention time, were consistent with a non-Arg-containing MC. […] The negative ion MS/MS spectrum obtained from the FS/DIA (full scan/data indepe ...

Chain of Protein phosphatase 2A (PP2A) (P67775 whole entry, looked up): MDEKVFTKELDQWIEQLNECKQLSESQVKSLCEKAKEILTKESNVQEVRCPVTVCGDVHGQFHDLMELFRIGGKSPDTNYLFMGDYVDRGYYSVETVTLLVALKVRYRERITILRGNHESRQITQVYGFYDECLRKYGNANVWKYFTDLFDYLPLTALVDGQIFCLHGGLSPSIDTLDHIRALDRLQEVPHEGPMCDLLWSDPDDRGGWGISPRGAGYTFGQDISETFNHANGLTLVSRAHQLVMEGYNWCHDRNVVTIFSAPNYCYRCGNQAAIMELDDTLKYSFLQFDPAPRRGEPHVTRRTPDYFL

| Compound | IC50 (PP2A inhibition) [1] [ng/mL] | Potency in PP2A inhibition assay relative to MC-LR (2) [1] | IC50 [1] [nM] | IC50 (PP2A) [nM] | IC50 relative to MC-LR (2), fold higher (PP2A; PP2A assay, MC-LF vs. MC-LR, ref 21 (Ikehara et al.)) [fold] | IC50 (PP2A; ref 21 (Ikehara et al.)) [nM] |
| --- | --- | --- | --- | --- | --- | --- |
| C=C1C(=O)N[C@H](CC(C)C)C(=O)N[C@@H](CC(C)C)C(=O)N[C@@H](C(=O)O)[C@H](C)C(=O)N[C@@H](Cc2ccc(O)cc2)C(=O)N[C@@H](/C=C/C(C)=C/[C@H](C)[C@H](Cc2ccccc2)OC)[C@H](C)C(=O)N[C@@H](C(=O)O)CCC(=O)N1C [Compound 1, [D-Leu^1]MC-LY] (Y[Adda][d(γGlu)][NMeDha][dL]L[dAsp(3S-Me)]-OH; lactam N-7) | 0.80 (≈ 0.766 nM) | essentially the same as for MC-LR (2) | 0.76 |  |  |  |
| C=C1C(=O)N[C@H](C)C(=O)N[C@@H](CC(C)C)C(=O)N[C@@H](C(=O)O)[C@H](C)C(=O)N[C@@H](CCCNC(=N)N)C(=O)N[C@@H](/C=C/C(C)=C/[C@H](C)[C@H](Cc2ccccc2)OC)[C@H](C)C(=O)N[C@@H](C(=O)O)CCC(=O)N1C [Compound 2, MC-LR] (R[Adda][d(γGlu)][NMeDha][dA]L[dAsp(3S-Me)]-OH; lactam N-7) | 0.62 (≈ 0.623 nM) |  | 0.62 | 0.032 |  |  |
| MC-LF [Compound 9] |  |  |  |  | 3 | 0.096 |
